In assay [1] the target is T1, SARS-CoV-2 PLpro (nsp3 1564–1878) (Severe acute respiratory syndrome coronavirus 2, UniProt P0DTD1). Kind of assay: biochemical. Also on record: FRET-quenched peptide (Pro3) cleavage by PLpro, 10 min pre-incubation, slope over 20 min, normalised to no-compound control. Conditions: low concentration screen, read-out: % of control remaining.
In assay [2] the target is T1, SARS-CoV-2 PLpro (nsp3 1564–1878). Kind of assay: biochemical. Also on record: FRET-quenched peptide (Pro3) cleavage by PLpro, 10 min pre-incubation, slope over 20 min, normalised to no-compound control. The settings on record: high concentration screen, read-out: % of control remaining.

Like-named read-outs stand apart in the source and are kept apart here.

As for `COc1ccc2c(c1OC)C(=O)O[C@@H]2[C@H]1c2c(cc3c(c2OC)OCO3)CCN1C` (racemic), the remaining activity at 1.25 µM in assay [1] (Well no.=3446) worked out at 92.3%. Further, the remaining activity at 3.75 µM in assay [2] (Well no.=3446) was 90.7%.
Turning to `CCCN1CCO[C@@H]2c3cc(O)ccc3OC[C@H]21` (racemic), in assay [1] (Well no.=1505), the remaining activity at 1.25 µM is 96%. In assay [2] (Well no.=1505), the remaining activity at 3.75 µM was found to be 96.1%.
For `CC(C)NCC(O)COc1ccc(COCCOC(C)C)cc1` (racemic), the remaining activity at 1.25 µM in assay [1] (Well no.=6415) turned out to be 99.2%. Further, in assay [2] (Well no.=6415), the remaining activity at 3.75 µM turned out to be 93.2%.
With `C[C@@H]1O[C@H](C[N+](C)(C)C)C[C@H]1O` (racemic), the remaining activity at 1.25 µM in assay [1] (Well no.=1037) is 97.2%. In assay [2] (Well no.=1037), the remaining activity at 3.75 µM is 98.2%.
Turning to `CCCCCC(O)/C=C/C=C\CCCCCCCC(=O)O` (racemic), the remaining activity at 1.25 µM in assay [1] (Well no.=4382) was found to be 99.2%. The remaining activity at 3.75 µM in assay [2] (Well no.=4382) was determined as 96.6%.
For `CCN1CCCC1CNC(=O)c1cc(S(N)(=O)=O)ccc1OC` (racemic), the remaining activity at 1.25 µM in assay [1] (Well no.=1174) was 105%. Also, in assay [2] (Well no.=1174), the remaining activity at 3.75 µM came to 106%.
With `C[C@H]1CC[C@@H]2[C@@H](C)[C@H]3[C@H](C[C@H]4[C@@H]5CC=C6C[C@@H](O[C@@H]7O[C@H](CO)[C@H](O)[C@H](O[C@@H]8O[C@H](CO)[C@@H](O)[C@H](O)[C@H]8O)[C@H]7O[C@H]7O[C@@H](C)[C@H](O)[C@@H](O)[C@H]7O)CC[C@]6(C)[C@H]5CC[C@]34C)N2C1` (racemic), in assay [1] (Well no.=3465), the remaining activity at 1.25 µM came to 105%. The remaining activity at 3.75 µM in assay [2] (Well no.=3465) was determined as 105%.
In the case of `CCCN1CCC[C@@H]2Cc3n[nH]cc3C[C@H]21` (racemic), the remaining activity at 1.25 µM in assay [1] (Well no.=1461) stood at 91%. Moreover, in assay [2] (Well no.=1461), the remaining activity at 3.75 µM was 88.7%.
Consider `O=C1CCC(N2C(=O)c3ccccc3C2=O)C(=O)N1` (racemic), for which the remaining activity at 1.25 µM in assay [1] (Well no.=1282) stood at 107%. In addition, the remaining activity at 3.75 µM in assay [2] (Well no.=1282) was 105%.
On to `O=C1c2c(O)cc(O)cc2O[C@H](c2ccc(O)c(O)c2)[C@H]1O` (racemic), for which the remaining activity at 1.25 µM in assay [1] (Well no.=1527) stood at 95.9%. The remaining activity at 3.75 µM in assay [2] (Well no.=1527) was 96.7%.
Consider `CC(C)NCC(O)c1ccc(NS(C)(=O)=O)cc1` (racemic), for which the remaining activity at 1.25 µM in assay [1] (Well no.=1212) amounted to 105%. Further, the remaining activity at 3.75 µM in assay [2] (Well no.=1212) amounted to 103%.
`COc1cc(C(O)CN)ccc1O` (racemic): the remaining activity at 1.25 µM in assay [1] (Well no.=1049) is 96.5%. Further, the remaining activity at 3.75 µM in assay [2] (Well no.=1049) came out at 96.1%.
As to `c1cncc([C@@H]2CCCCN2)c1` (racemic), in assay [1] (Well no.=3477), the remaining activity at 1.25 µM was 102%. In assay [2] (Well no.=3477), the remaining activity at 3.75 µM worked out at 99.3%.
For the compound `C[N+](C)(C)CC(O)CC(=O)[O-]` (racemic), in assay [1] (Well no.=3402), the remaining activity at 1.25 µM was found to be 88.4%. In addition, the remaining activity at 3.75 µM in assay [2] (Well no.=3402) stood at 86.6%.
On to `CC(C)Cc1ccc(C(C)C(=O)O)cc1` (racemic), for which the remaining activity at 1.25 µM in assay [1] (Well no.=1011) came out at 100%. In addition, the remaining activity at 3.75 µM in assay [2] (Well no.=1011) stood at 99.6%.
Take `CC1=CC(=O)CC(C)(C)C1(O)/C=C/C(C)=C\C(=O)O` (racemic): the remaining activity at 1.25 µM in assay [1] (Well no.=3152) was 101%. Moreover, the remaining activity at 3.75 µM in assay [2] (Well no.=3152) was 102%.
In the case of `CNCC(O)c1ccc(O)cc1` (racemic), the remaining activity at 1.25 µM in assay [1] (Well no.=1356) came out at 102%. The remaining activity at 3.75 µM in assay [2] (Well no.=1356) was determined as 104%.
As to `NCC(O)c1ccc(O)cc1` (racemic), the remaining activity at 1.25 µM in assay [1] (Well no.=1038) was determined as 97.4%. Besides, the remaining activity at 3.75 µM in assay [2] (Well no.=1038) stood at 95.7%.
Consider `C=CC(N)CCC(=O)O` (racemic), for which, in assay [1] (Well no.=1528), the remaining activity at 1.25 µM amounted to 98.8%. Moreover, the remaining activity at 3.75 µM in assay [2] (Well no.=1528) came out at 96.6%.
Turning to `CCCN(CCc1ccccc1)C1CCc2c(O)cccc2C1` (racemic), the remaining activity at 1.25 µM in assay [1] (Well no.=1357) amounted to 102%. For the same compound, the remaining activity at 3.75 µM in assay [2] (Well no.=1357) was 103%.
For the compound `CCCCCC(O)/C=C/C=O` (racemic), in assay [1] (Well no.=4337), the remaining activity at 1.25 µM turned out to be 104%. Moreover, the remaining activity at 3.75 µM in assay [2] (Well no.=4337) came to 102%.
Turning to `CCCCC/C=C\C/C=C\C/C=C\C=C\C1CCCC(=O)O1` (racemic), the remaining activity at 1.25 µM in assay [1] (Well no.=4277) is 105%. Moreover, the remaining activity at 3.75 µM in assay [2] (Well no.=4277) turned out to be 102%.
`OC1CCCCC1N1CCC(c2ccccc2)CC1` (racemic): the remaining activity at 1.25 µM in assay [1] (Well no.=1290) was found to be 101%. The remaining activity at 3.75 µM in assay [2] (Well no.=1290) amounted to 97.9%.
On to `CCCCCCCCCCCCCC(=O)O[C@@H]1[C@@H](C)[C@@]2(O)[C@@H](C=C(CO)C[C@@]3(O)C(=O)C(C)=C[C@@H]23)[C@@H]2C(C)(C)[C@]12OC(C)=O` (racemic), for which the remaining activity at 1.25 µM in assay [1] (Well no.=3080) stood at 98.8%. Further, the remaining activity at 3.75 µM in assay [2] (Well no.=3080) amounted to 98.9%.
On to `CCCCCCCN[C@H]1CCC[C@@H]1CCCCCCC(=O)O` (racemic), for which the remaining activity at 1.25 µM in assay [1] (Well no.=4531) came out at 95.3%. Also, the remaining activity at 3.75 µM in assay [2] (Well no.=4531) worked out at 98%.
Turning to `COC1=CC(=O)O[C@@H](/C=C/c2ccccc2)C1` (racemic), the remaining activity at 1.25 µM in assay [1] (Well no.=3371) is 92.9%. In addition, the remaining activity at 3.75 µM in assay [2] (Well no.=3371) turned out to be 95.8%.
As to `CCCCC[C@H](O)/C=C/[C@@H]1[C@@H](C/C=C\CCCC(=O)O)[C@H](O)C[C@H]1O` (racemic), in assay [1] (Well no.=4479), the remaining activity at 1.25 µM was 101%. The remaining activity at 3.75 µM in assay [2] (Well no.=4479) came to 101%.
As for `COc1ccc(CCN(C)CCCC(C#N)(c2cc(OC)c(OC)c(OC)c2)C(C)C)cc1OC` (racemic), the remaining activity at 1.25 µM in assay [1] (Well no.=1026) worked out at 94.4%. The remaining activity at 3.75 µM in assay [2] (Well no.=1026) stood at 98.1%.
As to `CCCCC/C=C\C=C\C(O)CCCCCCCC(=O)O` (racemic), the remaining activity at 1.25 µM in assay [1] (Well no.=4378) came to 103%. Also, the remaining activity at 3.75 µM in assay [2] (Well no.=4378) is 103%.
Consider `N[C@H](C(=O)O)c1cc(O)no1` (racemic), for which the remaining activity at 1.25 µM in assay [1] (Well no.=819) is 98.4%. In addition, the remaining activity at 3.75 µM in assay [2] (Well no.=819) is 98.7%.
Consider `O=C(O)CCCCC1CCSS1` (racemic), for which, in assay [1] (Well no.=1195), the remaining activity at 1.25 µM amounted to 102%. The remaining activity at 3.75 µM in assay [2] (Well no.=1195) worked out at 101%.
On to `O=C(NC(NC(=S)Nc1ccc(F)c([N+](=O)[O-])c1)C(Cl)(Cl)Cl)C(c1ccccc1)c1ccccc1` (racemic), for which, in assay [1] (Well no.=2588), the remaining activity at 1.25 µM is 94.8%. In assay [2] (Well no.=2588), the remaining activity at 3.75 µM turned out to be 93.4%.
As to `CC1(NC(=O)CBr)CCC(C(C)(C)NCC(O)COc2cccc3[nH]ccc23)CC1` (racemic), in assay [1] (Well no.=1215), the remaining activity at 1.25 µM came out at 99.4%. Besides, the remaining activity at 3.75 µM in assay [2] (Well no.=1215) is 102%.
As to `COc1ccc(CCN(C)CCCC(C#N)(c2ccc(OC)c(OC)c2)C(C)C)cc1OC` (racemic), the remaining activity at 1.25 µM in assay [1] (Well no.=1336) came to 104%. Also, the remaining activity at 3.75 µM in assay [2] (Well no.=1336) was 101%.
Turning to `NC(Cc1cc(O)c(O)cc1O)C(=O)O` (racemic) [6-Hydroxy-DL-DOPA], the remaining activity at 1.25 µM in assay [1] (Well no.=752) was found to be 88.3%. Moreover, the remaining activity at 3.75 µM in assay [2] (Well no.=752) turned out to be 89.4%.

The values are drawn from article PMC8286840, “Identifying SARS-CoV-2 antiviral compounds by screening for small molecule inhibitors of Nsp3 papain-like protease” (Biochemical Journal, 2021).
